Patent US20120283099A1, “CONTROLLING PLANTHOPPERS” (priority 2011, published 2012)
Where “and” joins values, the source holds several entries; their conditions need not be identical. Equal values may be shown once.

Tested on: brown planthoppers, Nilaparvata lugens
Assay: Field efficacy on brown planthopper in transplanted rice (small-plot trials A-D)
Assay type: in vivo
Conditions: Sulfoxaflor 50 g/ha, Buprofezin 100 g/ha, mixture 50 + 100 g/ha
Description: Applications were made to transplanted rice, Oryza sativa, using small-plot efficacy methods. Chemicals were diluted in water and all treatments were applied using a backpack sprayer calibrated to deliver 500 liters of spray solution per hectare. Experimental plots measured 5 by 10 meters and each treatment was replicated three times in each trial. At the specified intervals after treatment, brown planthoppers, Nilaparvata lugens, were counted in 10 randomly selected hills per plot. Data were transformed to percent control relative to the untreated plots, then subjected to analysis of variance, and means were separated using Tukey's HSD (p=0.1). Expected control was calculated using the method of Colby and compared to observed control. See the Table Section for the results of the Field Trials.

[1] = Trial A, 1 DAT, relative to untreated plots

Row | Compound | % Control [1] | % Control (Trial A, 3 DAT) | % Control (Trial A, 7 DAT) | % Control (Trial A, 10 DAT) | % Control (Trial A, 15 DAT) | % Control (Trial B, 1 DAT) | % Control (Trial B, 3 DAT) | % Control (Trial B, 7 DAT) | % Control (Trial B, 10 DAT) | % Control (Trial B, 15 DAT) | % Control (Trial C, 1 DAT) | % Control (Trial C, 3 DAT) | % Control (Trial C, 7 DAT) | % Control (Trial C, 10 DAT) | % Control (Trial C, 15 DAT) | % Control (Trial D, 1 DAT) | % Control (Trial D, 7 DAT) | % Control (Trial D, 10 DAT) | % Control (Trial D, 15 DAT)
1 | CC(C)N1C(=O)N(c2ccccc2)CS/C1=N\C(C)(C)C [Buprofezin] | 34.9 a % and 34.9% | 72.4 b % and 72.4% | 72.4 b % and 72.4% | 49.4 b % and 49.4% | 49.0 b % and 49.0% | 24.5 a % and 24.5% | 73.0 b % and 73.0% | 80.2 b % and 80.2% | 63.2 b % and 63.2% | 67.7 b % and 67.7% | 31.2 ab % and 31.2% | 63.2 b % and 63.2% | 61.2 b % and 61.2% | 31.2 b % and 31.2% | 47.8 b % and 47.8% | 78.2 b % and 78.2% | 66.0 b % and 66.0% | 34.0 c % and 34.0% | 47.6 b % and 47.6%
2 | CC(c1ccc(C(F)(F)F)nc1)S(C)(=O)=NC#N (centres unmarked) [Sulfoxaflor] | 11.2 b % and 11.2% | 43.5 c % and 43.5% | 32.8 c % and 32.8% | 6.8 c % and 6.9% | 19.3 c % and 19.3% | 29.4 a % and 29.4% | 63.6 b % and 63.6% | 62.8 c % and 62.8% | 48.8 b % and 48.8% | 50.3 c % and 50.3% | 13.5 bc % and 13.5% | 42.4 c % and 42.2% | 57.9 b % and 57.9% | 9.6 b % and 9.6% | 30.1 c % and 30.1% | 71.4 b % and 71.4% | 72.9 b % and 72.9% | 57.5 b % and 57.5% | 51.9 b % and 51.9%
